Measured values: patent US7736638B2, “Interleukin-15 antagonist peptide” (Centro de Ingenieria Genetica y Biotecnologia, priority 2004, dated 2010)
“Also recorded” adds a separate entry of the source. Ends that are not written are not given here.

Legend:
[1] = molecular target: IL-15Rα-Fc (Homo sapiens, UniProt Q13261); assay: IL-15 peptide spot mapping on cellulose filter, binding of IL-15Rα-Fc; conditions: 10-mer peptides on cellulose membrane; IL-15 α-Receptor at 5 μg/mL; blue/violet color = positive; listed as 8
Description: To identify IL-15 regions involved in IL-15Rα binding, the peptide spot synthesis approach was used as previously described Frank et. al. The derivation of Whatman 540 paper was carried out estherifying the first anchor component, Fmoc-β-Ala-OH, using N,N′-Diisopropylcarbodiimide (DIC) and N-methylimidazole (NMI) in dry N,N-dimethylformamide (DMF). The spot array on the cellulose membrane was defined anchoring the Fmoc-β-Ala-OH on the previously marked positions, according to the required number of 10-mer peptides (22 peptides, overlapping in 5 residues, 114 amino acids of IL-15 sequence). Besides, a non-related 10 amino acids peptide was synthesized on spot 23 and also on spot 24 only Fmoc-β-Ala-OH was anchoring, both as controls. For the assembly of all these molecules, the standard Fmoc-/tBu chemistry was used. After the final cycle of synthesis, the N-terminus and side chains of all peptides were de-protected.
Cellulose sheet was soaked in ethanol to prevent possible hydrophobic interactions between the peptides on it. Ethanol was exchanged against Tris-buffer saline (TBS) (150 mM NaCl, 10 mM Tris, pH 7.6) by sequential washing. Nonspecific binding was blocked by incubating membrane overnight in 10 mL of TBS blocking buffer (5% Powdered milk in TBS). […]

[2] = tested on: IL-15-induced proliferation of CTLL-2 cells; assay: CTLL-2 proliferation assay with human IL-15 (MTT staining); type: cell-based; conditions: fixed peptide concentration 260 μM
Description: The cytokine-dependent cell line CTLL-2 proliferates in presence of IL-15. IL-15 bound molecules impairing receptor depending signal transduction would inhibit this cell line proliferation. To evaluate the neutralizing capacity the peptide of the present invention, serial dilutions of them were done in 96 well plates (Costar, USA) in 25 μL volume of RPMI medium (Gibco) supplemented with 10% fetal bovine serum (Gibco). Previously washed CTLL-2 cells were added to 5×10^3 cells/well and it was incubated for 30 min. Then, 300 pg of IL-15 were added to each well. Plate was incubated for 72 h at 5% CO2 and 37° C. […] We also evaluated the antagonist effect of 260 μM of this peptide at different IL-15 concentrations (FIG. 3a).

[3] = molecular target: T1, IL-15Rα-Fc fusion protein (R&D 147-IR) (Homo sapiens, UniProt Q13261); assay: Colorimetric assay in Tentagel S beads, peptide binding to IL-15Rα; conditions: resin-bound peptide, IL-15Rα-Fc at 5 μg/mL
T1 construct: purchased R&D 147-IR
Description: The resin NH2-Tentagel-S (0.24 mmol/g) was washed several times with di-chlorometane (DCM) and methanol. Then, it was incubated in a trifluoroacetic acid (TFA) solution 30% for 10 minutes; washed several times with DCM and incubated in di-isopropilethilamine (DIEA) 5% in DCM for 1 minute. This procedure activated the NH2 groups for synthesis. Later, it was washed with DCM and incubated in di-methylformamide (DMF) for 5 minutes to synthesize the peptide. The conventional Fmoc/tBu strategy of synthesis was used. Coupling reactions were followed by ninhidrine test. Once peptide Sec. No.1 sequence was completed, amino acids side chains were de-protected, leaving it anchored by its C-terminal to the resin.
Resin beads with anchored peptide were several times washed with saline solution (PBS). Non specific interactions were blocked with BSA (1%) in PBS for 1 hour at RT. Then, they were incubated with IL-15Rα-Fc fusion protein (R&D 147-IR) at 5 μg/mL in BSA (1%/PBS) for 16 hours at 4° C. Later, beads were washed in PBS three fold for 5 minutes with shaking and then incubated with anti-Fc IgG human-phosphatase conjugate diluted 1:25000 in BSA (1%/PBS) for three hours at RT. They were extensively washed with a saline solution (TBS/Tween-20, 1%) and incubated with BCIP (0.45 mg/mL) in substrate solution (100 mM Tris, pH 8.9; 100 mM NaCl; 2 mM MgCl2) for approximately 30 minutes. […]

[4] = tested on: TNFα-induced apoptosis in L929 cells; assay: Apoptosis induction assay in L929 cells (DNA fragmentation assay); type: cell-based; conditions: TNFα 100 ng/mL, peptide 260 μM, 24 h
Description: The DNA Fragmentation Assay allows to determine the amount of DNA that is degraded upon treatment of cells with TNF-alpha. The cells' DNA is radioactively labeled by growing the cells in presence of 3H-Thymidine so that radioactive 3H-Thymidine is incorporated into the DNA. After 24 h the cells were treated with Tripsin/EDTA, washed and seeded at 5000 cells per well in a 96 well plate. Then, the labeled cells were incubated with TNFα (100 ng/mL), IL-15 (100 ng/mL), peptides (260 μM) or combinations of TNFα with different peptides.
During this incubation the added agent (e.g. TNFα induces cells to die by apoptosis and consequently the fragmentation of DNA while the DNA of untreated cells remains intact). After 24 h the cells were harvested: during harvesting, the cells were washed out of the wells of the 96 well plate with bidestilated water: the cells and organelles burst and the cell's DNA is set free. The cell fragments and DNA are passed through a filter membrane (glassfiber). Only particles of smaller than 1,5 μm can pass the filter. […] The filter membrane was dried and the amount of radioactivity (what corresponds to the amount of intact DNA) counted in a scintillation counter. The percentage of DNA fragmentation was calculated by comparing the counted radioactivity (counts per minute=cpm) of cells that were not treated with the cpm in cells that were treated with agent.

T1 sequence (Q13261 with tags, fused parts or gaps limits assumed): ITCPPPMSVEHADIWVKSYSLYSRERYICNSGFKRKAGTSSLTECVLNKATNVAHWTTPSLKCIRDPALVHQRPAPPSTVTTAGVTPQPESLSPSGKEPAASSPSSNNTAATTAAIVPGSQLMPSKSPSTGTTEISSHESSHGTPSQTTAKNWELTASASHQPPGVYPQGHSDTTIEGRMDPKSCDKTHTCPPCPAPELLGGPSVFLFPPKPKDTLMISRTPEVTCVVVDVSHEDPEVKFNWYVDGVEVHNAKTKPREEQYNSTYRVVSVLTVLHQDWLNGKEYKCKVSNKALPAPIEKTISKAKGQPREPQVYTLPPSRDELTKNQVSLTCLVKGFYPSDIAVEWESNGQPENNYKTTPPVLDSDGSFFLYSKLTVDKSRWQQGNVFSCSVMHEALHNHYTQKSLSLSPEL
IL-15Rα-Fc, sequence (Q13261 with tags, fused parts or gaps limits assumed): as above

Substance: KVTAMKCFLL-NH2 [SEQ ID NO: 1]
- recognition of the peptide spot by IL-15Rα-Fc [1]: recognizes; also recorded: recognition
- antagonist effect of the peptide at different IL-15 concentrations [2]: dependent on IL-15 doses
- color development in beads incubated with IL-15Rα-Fc [3]: intense blue color
- color development in beads incubated with IL-15Rα-Fc in presence of an excess of human IL-15 ([3]; excess of IL-15 (competition)): did not observed color
- protection from TNFα-induced apoptosis (DNA fragmentation) [4]: protected form TNF induced apoptosis
